{"source": "paper PMC7468108", "about": "(Communications Biology, 2020)", "key": {"[1]": {"system": "HEK-293 cells exposed to pre-formed hIAPP fibrils", "test": "XTT assay, reduction of hIAPP-induced cytotoxicity in HEK-293", "assay_type": "cell-based", "conditions": "Homo sapiens", "description": "(§1) The peptide assemblies were then incubated for further 24 h with SH-SY5Y or HEK-293 cells and cell viability was monitored by XTT assay (Fig. 9). […] The mixtures were then independently applied to the respective cells for 24 h, and cell viability was further measured by XTT assay (Fig. 10a).\n(§2) The SH-SY5Y and HEK-293 cell lines (2 × 10^5 cells/mL) were cultured in 96-well tissue microplates (100 µL/well) and allowed to adhere overnight at 37 °C. The conjugate molecules were dissolved in DMEM:nutrient mixture F12 (Ham’s) (1:1) (Biological Industries, Israel) at different concentrations. The negative control was prepared as medium without hybrid molecules and treated in the same manner. 100 µL of medium with or without hybrid molecules were added to each well in triplicate. Following incubation for 24 h at 37 °C, cell viability was evaluated using the 2,3-bis(2-methoxy-4-nitro-5-sulfophenyl)-2H-tetrazolium-5-carboxanilide (XTT) cell proliferation assay kit (Biological Industries, Israel) according to the manufacturer’s instructions. Briefly, 100 µL of activation reagent was added to 5 mL of XTT reagent, followed by the addition of 50 µL of activated-XTT solution to each well. After 2 h incubation at 37 °C, color intensity was measured using an ELISA microplate reader at 450 nm and 630 nm. Results are presented as mean and mean standard error. Each experiment was repeated minimum three times.\n(§3) For the quantitative data derived from ThT and XTT assays, statistical significance, expressed as p-value, was determined using Student’s t-test calculation applied at the end of the experiments, setting tails to 2 (tailed distribution) and type to 2 (samples equal variance), according to reported methods. From the XTT viability assays, EC50 and Emax values were determined from the dose-response curves of each tested molecule using non-linear least-square data fitting, according to literature."}, "[2]": {"test": "XTT assay, cytotoxicity of the hybrid molecules towards SH-SY5Y", "assay_type": "cell-based", "conditions": "human, SH-SY5Y cells", "description": "To this end, we first tested whether the hybrid molecules carried any cytotoxicity themselves. […] No considerable toxicity (≥95% viability) was caused by the hybrid molecules towards either cell line, even at the highest concentration of 250 µM (Fig. 8).\nas §2"}, "[3]": {"system": "SH-SY5Y cells exposed to pre-formed Aβ42 fibrils", "test": "XTT assay, reduction of Aβ42-induced cytotoxicity in SH-SY5Y", "assay_type": "cell-based, human", "parameters": "%Viability: dose or concentration left out as unconfirmed", "description": "as §1, §2, §3"}, "[4]": {"target": "T1, pre-formed fibrils of hIAPP (Homo sapiens, UniProt P10997)", "T1 construct": "hIAPP is a 37-amino acid neuroendocrine peptide hormone; purchased Peptide 2.0 (USA)", "T1 sequence (P10997 34-70 limits assumed)": "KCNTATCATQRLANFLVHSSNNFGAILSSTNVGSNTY", "test": "ThT-binding assay, disaggregation of pre-formed hIAPP fibrils", "assay_type": "biochemical", "conditions": "for % amyloid of hIAPP in absence or presence of inhibitors: hIAPP 10 µM; for Normalized ThT fluorescence kinetics: hIAPP (10 µM) : molecule 1:5", "description": "For efficient treatment of proteinopathies it may be advantageous to disassemble amyloid aggregates/fibrils which are usually already present at the time of diagnosis[75]–[77]. […] Then, various doses of the hybrid molecules were added to the pre-formed fibrils and the mixtures were incubated for additional 10 h. The process of disaggregation was monitored by ThT-binding assay, CD spectroscopy, TEM and Congo red staining (Fig. 5).\nThe experiment was performed according to the previous report. […] Kinetics fluorescence data were collected at 37 °C in triplicate using Infinite M200 microplate reader (Tecan, Switzerland), with measurements acquired at 15 min intervals. Excitation and emission wavelengths were set at 440 nm and 485 nm, respectively."}, "[5]": {"target": "T2, Aβ42 (Homo sapiens, UniProt P05067)", "T2 construct": "purchased rPeptide (USA)", "T2 sequence (P05067 672-713 limits assumed)": "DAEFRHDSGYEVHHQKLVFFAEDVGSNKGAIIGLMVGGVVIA", "test": "TEM of Aβ42 fibrils formed with the tested molecules", "conditions": "5-fold excess of compound", "description": "These fibrils also generated the amyloid specific gold-green birefringence upon staining with Congo red (Fig. 3, bottom panel and Supplementary Fig. 6)[74].\nSamples (10 µL) were placed for 2 min on 400-mesh copper grids covered with carbon-stabilized Formvar film (Electron Microscopy Sciences (EMS), Hatfield, PA). Excess fluid was removed, and grids were negatively stained with 2% uranyl acetate solution (10 µL) for 2 min. After excess fluid removal, the samples were visualized using a JEM-1400 TEM (JEOL), operated at 80 kV."}}, "data": [{"compound": "NC(Cc1c[nH]c2ccccc12)C(=O)NC(Cc1c[nH]c2ccccc12)C(=O)O", "note": "(centres unmarked) [WW]", "values": [{"measurement": "viability at 10 µM", "setting": "[1]; HEK293, hIAPP (10 µM) : molecule 1:1, HEK-293 cells, normalized XTT data", "value": 55.2, "unit": "%"}, {"measurement": "viability at 50 µM", "setting": "[1]; HEK293, hIAPP (10 µM) : molecule 1:5, HEK-293 cells, normalized XTT data", "value": 57.7, "unit": "%"}, {"measurement": "viability at 200 µM", "setting": "[1]; HEK293, hIAPP (10 µM) : molecule 1:20, HEK-293 cells, normalized XTT data", "value": 58.5, "unit": "%"}, {"measurement": "viability at 2 µM", "setting": "[1]; HEK293, hIAPP (10 µM) : molecule 5:1, HEK-293 cells, normalized XTT data", "value": 55.6, "unit": "%"}, {"measurement": "EC50", "setting": "[1]; HEK293, reduction of cytotoxicity of pre-formed hIAPP fibrils 10 µM, HEK-293", "value": 10, "unit": "µM"}, {"measurement": "viability at 24 h, 0.2 µM", "setting": "[2]; 0.2µM", "value": 98.8, "unit": "%"}, {"measurement": "viability at 24 h, 1 µM", "setting": "[2]; 1 µM", "value": 100, "unit": "%"}, {"measurement": "viability at 24 h, 10 µM", "setting": "[2]; 10 µM", "value": 98.4, "unit": "%"}, {"measurement": "viability at 24 h, 50 µM", "setting": "[2]; 50 µM", "value": 90.9, "unit": "%"}, {"measurement": "viability at 24 h, 250 µM", "setting": "[2]", "value": 88.4, "unit": "%"}, {"measurement": "viability at 24 h, 250 µM", "setting": "[2]; SH-SY5Y, 24 h", "value": "~88", "unit": "%"}, {"measurement": "%Viability", "setting": "[3]; Aβ42 […] µM : compound 1:1", "value": 54.466, "unit": "%"}, {"measurement": "%Viability", "setting": "[3]; Aβ42 […] µM : compound 1:5", "value": 57.303, "unit": "%"}, {"measurement": "%Viability", "setting": "[3]; Aβ42 […] µM : compound 1:10", "value": 57.999, "unit": "%"}, {"measurement": "%Viability", "setting": "[3]; Aβ42 […] µM : compound 1:20", "value": 59.030, "unit": "%"}, {"measurement": "%Viability", "setting": "[3]; Aβ42 […] µM : compound 5:1", "value": 52.403, "unit": "%"}, {"measurement": "%Viability", "setting": "[3]; Aβ42 […] µM : compound 10:1", "value": 48.896, "unit": "%"}, {"measurement": "%Viability", "setting": "[3]; Aβ42 […] µM : compound 20:1", "value": 51.423, "unit": "%"}, {"measurement": "%Viability", "setting": "[3]; Aβ42 […] µM : compound 50:1", "value": 50.031, "unit": "%"}, {"measurement": "EC50", "setting": "[3]; Homo sapiens, read-out: Aβ42 EC50", "value": 13, "unit": "µM"}, {"measurement": "increase of ThT signal of pre-formed hIAPP fibrils", "setting": "[4]; compound added to pre-formed fibrils", "value": 20, "unit": "%"}, {"measurement": "% amyloid of hIAPP in absence or presence of inhibitors", "setting": "[4]; molar ratio hIAPP:tested molecule 1:1", "value": 112.662, "unit": "%"}, {"measurement": "% amyloid of hIAPP in absence or presence of inhibitors", "setting": "[4]; molar ratio hIAPP:tested molecule 1:5", "value": 117.610, "unit": "%"}, {"measurement": "% amyloid of hIAPP in absence or presence of inhibitors", "setting": "[4]; molar ratio hIAPP:tested molecule 5:1", "value": 104.704, "unit": "%"}, {"measurement": "Normalized ThT fluorescence kinetics", "setting": "[4]; time 10.25 h", "value": 100.289}, {"measurement": "Normalized ThT fluorescence kinetics", "setting": "[4]; time 10.5 h", "value": 101.480}, {"measurement": "Normalized ThT fluorescence kinetics", "setting": "[4]; time 10.75 h", "value": 103.392}, {"measurement": "Normalized ThT fluorescence kinetics", "setting": "[4]; time 11 h", "value": 104.551}, {"measurement": "Normalized ThT fluorescence kinetics", "setting": "[4]; time 11.25 h", "value": 105.696}, {"measurement": "Normalized ThT fluorescence kinetics", "setting": "[4]; time 11.5 h", "value": 107.934}, {"measurement": "Normalized ThT fluorescence kinetics", "setting": "[4]; time 11.75 h", "value": 110.096}, {"measurement": "Normalized ThT fluorescence kinetics", "setting": "[4]; time 12 h", "value": 110.792}, {"measurement": "Normalized ThT fluorescence kinetics", "setting": "[4]; time 12.25 h", "value": 111.709}, {"measurement": "Normalized ThT fluorescence kinetics", "setting": "[4]; time 12.5 h", "value": 113.122}, {"measurement": "Normalized ThT fluorescence kinetics", "setting": "[4]; time 12.75 h", "value": 114.844}, {"measurement": "Normalized ThT fluorescence kinetics", "setting": "[4]; time 13 h", "value": 115.638}, {"measurement": "Normalized ThT fluorescence kinetics", "setting": "[4]; time 13.25 h", "value": 116.172}, {"measurement": "Normalized ThT fluorescence kinetics", "setting": "[4]; time 13.5 h", "value": 117.523}, {"measurement": "Normalized ThT fluorescence kinetics", "setting": "[4]; time 13.75 h", "value": 117.888}, {"measurement": "Normalized ThT fluorescence kinetics", "setting": "[4]; time 14 h", "value": 118.165}, {"measurement": "Normalized ThT fluorescence kinetics", "setting": "[4]; time 14.25 h", "value": 118.126}, {"measurement": "Normalized ThT fluorescence kinetics", "setting": "[4]; time 14.5 h", "value": 117.561}, {"measurement": "Normalized ThT fluorescence kinetics", "setting": "[4]; time 14.75 h", "value": 117.932}, {"measurement": "Normalized ThT fluorescence kinetics", "setting": "[4]; time 15 h", "value": 118.466}, {"measurement": "Normalized ThT fluorescence kinetics", "setting": "[4]; time 15.25 h", "value": 118.713}, {"measurement": "Normalized ThT fluorescence kinetics", "setting": "[4]; time 15.5 h", "value": 118.486}, {"measurement": "Normalized ThT fluorescence kinetics", "setting": "[4]; time 15.75 h", "value": 118.695}, {"measurement": "Normalized ThT fluorescence kinetics", "setting": "[4]; time 16 h", "value": 118.857}, {"measurement": "Normalized ThT fluorescence kinetics", "setting": "[4]; time 16.25 h", "value": 118.835}, {"measurement": "Normalized ThT fluorescence kinetics", "setting": "[4]; time 16.5 h", "value": 118.502}, {"measurement": "Normalized ThT fluorescence kinetics", "setting": "[4]; time 16.75 h", "value": 118.398}, {"measurement": "Normalized ThT fluorescence kinetics", "setting": "[4]; time 17 h", "value": 118.694}, {"measurement": "Normalized ThT fluorescence kinetics", "setting": "[4]; time 17.25 h", "value": 118.398}, {"measurement": "Normalized ThT fluorescence kinetics", "setting": "[4]; time 17.5 h", "value": 118.456}, {"measurement": "Normalized ThT fluorescence kinetics", "setting": "[4]; time 17.75 h", "value": 118.427}, {"measurement": "Normalized ThT fluorescence kinetics", "setting": "[4]; time 18 h", "value": 117.817}, {"measurement": "Normalized ThT fluorescence kinetics", "setting": "[4]; time 18.25 h", "value": 117.835}, {"measurement": "Normalized ThT fluorescence kinetics", "setting": "[4]; time 18.5 h", "value": 117.859}, {"measurement": "Normalized ThT fluorescence kinetics", "setting": "[4]; time 18.75 h", "value": 117.995}, {"measurement": "Normalized ThT fluorescence kinetics", "setting": "[4]; time 19 h", "value": 117.576}, {"measurement": "Normalized ThT fluorescence kinetics", "setting": "[4]; time 19.25 h", "value": 117.741}, {"measurement": "Normalized ThT fluorescence kinetics", "setting": "[4]; time 19.5 h", "value": 118.044}, {"measurement": "Normalized ThT fluorescence kinetics", "setting": "[4]; time 19.75 h", "value": 117.625}, {"measurement": "Normalized ThT fluorescence kinetics", "setting": "[4]; time 20 h", "value": 117.610}, {"measurement": "Aβ42 fibril morphology (TEM), in words", "setting": "[5]", "value": "did not display any effect"}]}]}
